Results from patent US11241434B2, “Compositions and methods for improving cognition in a subject” (Yale University, priority 2013, dated 2022).

Test system: Fyn (phospho-Src pY416)
Experiment: pY416 and Fyn immunoblot of hippocampus of WT mice fed AZD0530 diet
Assay type: in vivo, mouse
Conditions: diet pellets 5 mg/kg/d, 9 months, vs Vehicle
Source text: FIGS. 17A-17C illustrate reduced Fyn activation in mice fed AZD0530-containing food. FIG. 17A: Representative blots using anti-pY416, Fyn, and 8-actin antibodies of the RIPA-soluble fraction of the hippocampus of WT mice treated with Vehicle or AZD0530 for 9 months. FIG. 17B: Quantification of pY416-immunoreactive bands from the immunoblot from FIG. 17A by densitometric analysis. The bands indicated by an arrow in FIG. 17A were quantified. The band intensity was normalized to that of 8-actin and then normalized to the mean of the Vehicle-treated WT group. Data are represented as mean±SEM. n=6/group. *p<0.05; t-test. FIG. 17C: Quantification of Fyn-immunoreactive bands from the immunoblot in FIG. 17A by densitometric analysis. The band intensity was normalized to that of β-actin and then normalized to the mean of the Vehicle-treated WT group. Data are represented as mean±SEM. n=6/group. t-test.
To generate chow containing chow for chronic dosing, the compound was incorporated into purified diet pellets by Research Diets, Inc. by dissolving the compound in a solution of 0.5% w/v Hydroxypropylmethylcellulose/0.1% w/v polysorbate 80 at 1.429 mg/ml. […] The dosage of the drug in the food was calculated to take into account the average amount of food eaten by a mouse in a single day per kg of weight and adjusted to be equivalent to ingesting 5 mg/kg per day. […]

Compound: CN1CCN(CCOc2cc(OC3CCOCC3)c3c(Nc4c(Cl)ccc5c4OCO5)ncnc3c2)CC1 [saracatinib, N-(5-chloro-benzo[d][1,3]dioxol-4-yl)-7-(2-(4-methylpiperazin-1-yl)ethoxy)-5-(tetrahydro-2H-pyran-4-yloxy)quinazolin-4-amine]
- total Fyn levels in hippocampus: no difference
